Patent publication US11873290B2, “Pyridazinone compounds and uses thereof” (Edgewise Therapeutics, Inc., priority 2018, dated 2024)

target: skeletal myofibrils (myosin ATPase activity); test: Skeletal Myofibril ATPase Assay; type: biochemical; conditions: PK-LDH coupled, absorbance at 340 nm
How it was run: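 Skeletal myofibril ATPase measured by PK-LDH-coupled NADH depletion at 340 nm, read every 1.5–2 min for 1 h; pCa buffer with PIPES/CaCl2/EGTA, pH 7.0. Rate taken as max–min absorbance, normalised to 1% DMSO vehicle (100%) and no change (0%); IC50 from four-parameter fit, bottom ≥0.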

IC50, < 10 µM:
CSC(C)COc1ncc(-c2ccc(=O)n(Cc3cncc(F)c3)n2)cn1 (stereo not shown) [Compound 123, 2((5-fluoropyridin-3-yl)methyl)-6-(2-(2-(methylthio)propoxy)pyrimidin-5-yl)pyridazine-3(2H)-one]
CCc1ncc(Cn2nc(-c3cnc(OCC(C)C)nc3)ccc2=O)s1 [Compound 124, 2-((2-ethylthiazol-5-yl)methyl)-6-(2-isobutoxypyrimidin-5-yl)pyridazine-3(2H)-one]
COC(C)(C)COc1ncc(-c2ccc(=O)n(Cc3cncc(F)c3)n2)cn1 [Compound 125, 2-((5-fluoropyridin-3-yl)methyl)-6-(2-(2-methoxy-2-methylpropoxy)pyrimidin-5-yl)pyridazine-3(2H)-one]
O=c1ccc(-c2cnc(OCC3CCC3)nc2)nn1Cc1cncc(F)c1 [Compound 126, 6-(2-(cyclobutylmethoxy)pyrimidin-5-yl)-2-((5-fluoropyridin-3-yl)methyl)pyridazine-3(2H)-one]
CC[C@@H](C)Oc1ncc(-c2ccc(=O)n(Cc3cncc(F)c3)n2)cn1 [Compound 127]
COc1cncc(Cn2nc(-c3cnc(OCC(F)(F)F)nc3)ccc2=O)c1 [Compound 128, 2-((5-methoxypyridin-3-yl)methyl)-6-(2-(2,2,2-trifluoroethoxy)pyrimidin-5-yl)pyridazine-3(2H)-one]
CCc1ncc(Cn2nc(-c3cnc(OCC(C)(F)F)nc3)ccc2=O)s1 [Compound 129, 6-(2-(2,2-difluoropropoxy)pyrimidin-5-yl)-2((2-ethylthiazol-5-yl)methyl)pyridazine-3(2H)-one]
Cc1ncc(Cn2nc(-c3cnc(OCC(C)C)nc3)ccc2=O)s1 [Compound 130, 6-(2-isobutoxypyrimidin-5-yl)-2-((2-methylthiazol-5-yl)methyl)pyridazine-3(2H)-one]
[2H]C(C)(C)COc1ncc(-c2ccc(=O)n(Cc3cncc(F)c3)n2)cn1 [Compound 131, 2-((5-fluoropyridin-3-yl)methyl)-6-(2-(2-methylpropoxy-2-d)pyrimidin-5-yl)pyridazin-3(2H)-one]
COc1ccc(Cn2nc(-c3cnc(OCC(F)(F)F)nc3)ccc2=O)cn1 [Compound 132, 2-((6-methoxypyridin-3-yl)methyl)-6-(2-(2,2,2-trifluoroethoxy)pyrimidin-5-yl)pyridazine-3(2H)-one]
CCc1cncc(Cn2nc(-c3cnc(OCC(F)(F)F)nc3)ccc2=O)c1 [Compound 137, 2-((5-ethylpyridin-3-yl)methyl)-6-(2-(2,2,2-trifluoroethoxy)pyrimidin-5-yl)pyridazine-3(2H)-one]
O=c1ccc(-c2cnc(OCc3ccccc3)nc2)nn1Cc1cncc(F)c1 [Compound 138]
O=c1ccc(-c2ccc(OC(F)F)cc2)nn1Cc1nnc(-c2ccccc2)s1 [Compound 201, 6-(4-(difluoromethoxy)phenyl)-2-((5-phenyl-1,3,4-thiadiazol-2-yl)methyl)pyridazin-3(2H)-one]
O=c1ccc(-c2ccc(OC(F)F)cc2)nn1Cc1nc(-c2ccccc2)no1 [Compound 202, 6-(4-(difluoromethoxy)phenyl)-2-((3-phenyl-1,2,4-oxadiazol-5-yl)methyl)pyridazine-3(2H)-one]
O=c1ccc(-c2ccc(OC(F)F)cc2)nn1Cc1nc2ccccc2o1 [Compound 203, 2-(benzo[d]oxazol-2-ylmethyl)-6-(4-(difluoromethoxy)phenyl) pyridazine-3(2H)-one]
Cc1cc(Cn2nc(-c3ccc(OC(F)F)cc3)ccc2=O)on1 [Compound 204, 6-(4-(difluoromethoxy)phenyl)-2-((3-methylisoxazol-5-yl)methyl)pyridazine-3(2H)-one]
Cc1csc(Cn2nc(-c3ccc(OC(F)F)cc3)ccc2=O)n1 [Compound 205, 6-(4-(difluoromethoxy)phenyl)-2-((4-methylthiazol-2-yl)methyl) pyridazine-3(2H)-one]
O=c1ccc(-c2ccc(OC(F)F)cc2)nn1Cc1cc(C2CC2)no1 [Compound 206, 2-((3-cyclopropylisoxazol-5-yl)methyl)-6-(4-(difluoromethoxy)phenyl) pyridazine-3(2H)-one]
O=c1ccc(-c2ccc(OC(F)F)cc2)nn1Cc1nc(C2CC2)no1 [Compound 208, 2((3-cyclopropyl-1,2,4-oxadiazol-5-yl)methyl)-6-(4-(difluoromethoxy)phenyl) pyridazine-3(2H)-one]
CCc1cc(Cn2nc(-c3ccc(OC(F)F)cc3)ccc2=O)on1 [Compound 209, 6-(4-(difluoromethoxy)phenyl)-2-((3-ethylisoxazol-5 - yl)methyl)pyridazin-3(2H)-one]
O=c1ccc(-c2ccc(OC(F)F)cc2)nn1Cc1nc(C2CC2)cs1 [Compound 210, 2-((4-cyclopropylthiazol-2-yl)methyl)-6-(4-(difluoromethoxy)phenyl) pyridazine-3(2H)-one]

IC50, 10 to 100 µM:
O=c1ccc(-c2ccc(OC(F)F)cc2)nn1Cc1ccc(Cl)cn1 [Compound 211, 2-((5-chloropyridin-2-yl)methyl)-6-(4-(difluoromethoxy)phenyl)-pyridazin-3(2H)-one]
O=c1ccc(-c2ccc(OC(F)F)cc2)nn1Cc1nnc(-c2ccccc2)o1 [Compound 212, 6-(4-(difluoromethoxy)phenyl)-2-((5-phenyl-1,3,4-oxadiazol-2-yl)methyl)pyridazin-3(2H)-one]
CCc1noc(Cn2nc(-c3ccc(OC(F)F)cc3)ccc2=O)n1 [Compound 213, 6-(4-(difluoromethoxy)phenyl)-2-((3-ethyl-1,2,4-oxadiazol-5-yl)methyl)pyridazin-3(2H)-one]
O=c1ccc(-c2ccc(OC(F)F)cc2)nn1Cc1nc(C2CC2)co1 [Compound 214, 2-((4-cyclopropyloxazol-2-yl)methyl)-6-(4-(difluoromethoxy)phenyl)-pyridazin-3(2H)-one]
O=c1ccc(-c2ccc(OC(F)F)cc2)nn1Cc1nnc(C(F)(F)F)o1 [Compound 215, 6-(4-(difluoromethoxy)phenyl)-2-((5-(trifluoromethyl)-1,3,4-oxadiazol-2-yl)methyl)pyridazin-3(2H)-one]
Cc1noc(Cn2nc(-c3ccc(OC(F)F)cc3)ccc2=O)n1 [Compound 216, 6-(4-(difluoromethoxy)phenyl)-2-((3-methyl-1,2,4-oxadiazol-5-yl)methyl)pyridazin-3(2H)-one]
O=c1ccc(-c2ccc(OC(F)F)cc2)nn1Cc1nnc(C2CC2)s1 [Compound 217, 2-((5-cyclopropyl-1,3,4-thiadiazol-2-yl)methyl)-6-(4-(difluoromethoxy)phenyl)-pyridazin-3(2H)-one]
Cc1coc(Cn2nc(-c3ccc(OC(F)F)cc3)ccc2=O)n1 [Compound 218, 6-(4-(difluoromethoxy)phenyl)-2-((4-methyloxazol-2-yl)methyl)pyridazin-3(2H)-one]
O=c1ccc(-c2ccc(OC(F)F)cc2)nn1Cc1nnc(C2CC2)o1 [Compound 219]
O=c1ccc(-c2ccc(OC(F)F)cc2)nn1Cc1cncnc1 [Compound 220, 6-(4-(difluoromethoxy)phenyl)-2-(pyrimidin-5-ylmethyl)pyridazin-3(2H)-one]
